# In PMC7961996, “Small Immunomodulatory Molecules as Potential Therapeutics in Experimental Murine Models of Acute Lung Injury (ALI)/Acute Respiratory Distress Syndrome (ARDS)” (International Journal of Molecular Sciences, 2021):
# Assays:
# [1] = Toxicology study of AVR-48, IV dose escalation and repeat dose phases; assay type: in vivo, Sprague Dawley rats
# Method: For the PK study of AVR-48 in rats, a formulation consisting of 10% DMSO, 20% tetraglycol, 20% PEG 400, and 50% sterile water was developed. Each preparation was made on the same day of dose administration. The components of the control/vehicle item formulation were added sequentially. Briefly, the appropriate volume of DMSO (10% of the final volume) was measured into a container followed by gradual addition of PEG 400 (20% of the final volume) and sterile water (50% of the final volume) to make up the volume and mixed thoroughly till completely dissolved. The final solution was filtered through a 0.22 µm membrane filter (Millipore Millex® GP PES, St. Louis, MO, USA) into a sterile vial.
# The toxicology study of AVR-48 was performed with both 8–10 week old male and female Sprague Dawley rats, in two phases following standard FDA guidance [M3(R2)R]. AVR-48 was injected IV at a volume of 5 mL/kg of body weight after reconstituting in 10% DMSO, 20% tetraglycol, and 20% PEG 400 in sterile water. In the dose escalation phase, 75 to 100 mg/kg per day was administered as two separate doses approximately 6–7 h apart by IV slow bolus injection at a volume of 5 mL/kg of body weight. Three animals of each sex were dosed at each dose level. During the repeat dose phase, daily doses of 0, 40, and 80 mg/kg/day were administered as two divided doses delivered by slow bolus injection at a volume of 5 mL/kg of body weight approximately 6–7 h apart. Study animals (n = 5/sex/dose) were treated for three days with a total of six doses for AVR-48. Twelve to eighteen hours after the last dose was administered, animals were euthanized and blood collected for analysis of clinical chemistry and other hematological parameters. Detailed necropsy examinations were performed on each animal, and tissues were collected and fixed with standard fixatives for histological analysis and interpretation.
# [2] = tested on: hPBMC; design: method as in earlier work; details: cited from earlier work
smiles,measurement,setting,value
"CC(=O)N[C@H]1[C@H](Oc2ccc([N+](=O)[O-])cc2)O[C@H](CO)[C@@H](O)[C@@H]1O [AVR-48, N-((2S,3R,4R,5S,6R)-4,5-dihydroxy-6-(hydroxymethyl)-2-(4-nitrophenoxy)tetrahydro-2H-pyran-3-yl) acetamide]","tolerability, repeat administration","[1]; 40 and 80 mg/kg/day as two daily doses of 20 and 40 mg/kg for three consecutive days, IV",well tolerated with no adverse clinical signs
same,hematology and clinical chemistry parameters,"[1]; IV for three consecutive days, up to 80 mg/kg/day",no changes in any of the hematology or clinical chemistry parameters
same,MTD at 3 days,"[1]; both sexes, Sprague Dawley, rat, in vivo, IV, two daily doses for three consecutive days, male and female rats",80 mg/kg/day
same,NOAEL at 3 days,"[1]; both sexes, Sprague Dawley, rat, in vivo, IV, two daily doses for three consecutive days, male and female rats, read-out: no observable adverse effect level (NOAEL)",80 mg/kg/day
same,adverse signs,"[1]; dose escalation, 75 mg/kg/day IV",No adverse signs were observed
same,mortality,"[1]; dose escalation, 100 mg/kg total daily dose IV",A single animal that received a total daily dose of 100 mg/kg died
same,clinical signs,"[1]; dose escalation, 100 mg/kg total daily dose, two IV bolus 6-7 h apart","clinical signs of hypoactivity, respiratory changes, changes in posture, and loss of motor coordination were observed"
same,therapeutic window over the efficacious dose,[1]; rat MTD/NOAEL vs 10 mg/kg efficacious dose in mouse,~8 fold
same,systemic gross observations at necropsy,[1]; repeat dose IV,no evidence of any AVR-48 related systemic gross observations at necropsy
same,TNF-α,[2]; in vitro hPBMC model,decreases TNF-α
same,IL-10 expression,[2]; with or without LPS,increased IL-10 expression
